Measured values as given in patent US7667052B2 (Eisai R&D Management Co., Ltd., priority 2003, dated 2010).
pIC50: −log10 of the molar value. Read-outs that look alike come from different tables or passages of the source.

Key:
[1] = system: transcription from VEGF promoter; experiment: VEGF transcription-suppressing activity, VEGF-PLAP reporter in U251/1-8 cell; assay type: cell-based; settings: Homo sapiens, U-251, U251/1-8 cell, PLAP activity, low oxygen 18 hours; for pIC50: read-out: IC50 values of VEGF transcription-suppressing activity (range given); for IC50: read-out: VEGF transcription suppressing activity (IC50: nM)
In short: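 U251 glioma clone stably carrying a ~2.3 kb human VEGF promoter–secreted PLAP reporter, 4×10^4 cells/well, exposed to 3-fold dilutions of compound for 18 h under low oxygen. Supernatant PLAP read by chemiluminescence at pH 10.0; IC50 = 50% suppression, normoxia 0%, hypoxia 100%.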

[2] = Solubility (physico-chemical properties of the 11107 analogues); settings: in dimethylsulfoxide, pyridine, methanol, acetone and water

For `CCC(O)C(C)C1OC1CC(C)/C=C/C=C(\C)C1OC(=O)CC(O)CCC(O)(COC(C)=O)C(O)/C=C/C1C` (stereo not shown) [11107AB], the pIC50 [1] was 7.00 to 9.00 and the Solubility [2] was “soluble in dimethylsulfoxide, pyridine, methanol and acetone, and slightly soluble in water”.
With `CCC(=O)C(C)(O)/C=C/CC(C)/C=C/C1OC(=O)CC(O)CCC(C)(O)C(OC(C)=O)/C=C/C1C` (stereo not shown) [11107AH] the Solubility [2] was “soluble in dimethylsulfoxide, pyridine, methanol and acetone, and slightly soluble in water”.
With `CCC(O)C(C)C1OC1CC(C)/C=C/C=C(\C)C1OC(=O)C(C)C(O)CCC(C)(O)C(O)/C=C/C1C` (stereo not shown) [11107AI] the Solubility [2] was “soluble in dimethylsulfoxide, pyridine, methanol and acetone, and slightly soluble in water”.
With `CC(=O)OC1/C=C/C(C)C(/C(C)=C/C=C/C(C)C/C=C/C(C)C(O)C(C)O)OC(=O)CC(O)CCC1(C)O` (stereo not shown) [11107AJ] the pIC50 [1] was 7.00 to 9.00 and the Solubility [2] was “soluble in dimethylsulfoxide, pyridine, methanol and acetone, and slightly soluble in water”.
With `CCC(O)C(C)C1OC1CC(C)/C=C/C=C(\C)C1OC(=O)CC(O)CCCC(O)/C=C/C1C` (stereo not shown) [11107AK] the Solubility [2] was “soluble in dimethylsulfoxide, pyridine, methanol and acetone, and slightly soluble in water”.
For `CCC(=O)C(C)C1OC1CC(C)/C=C/C=C(\C)C1OC(=O)CC(O)/C=C/C(C)(O)C(OC(C)=O)/C=C/C1C` (stereo not shown) [11107AL], the pIC50 [1] was 7.00 to 9.00 and the Solubility [2] was “soluble in dimethylsulfoxide, pyridine, methanol and acetone, and slightly soluble in water”.
For `CCC(O)C(C)C1OC1CC(C)/C=C/C=C(\C)C1OC(=O)CC(O)CCC2(CO2)C(OC(C)=O)/C=C/C1C` (stereo not shown) [11107AM], the pIC50 [1] was 7.00 to 9.00, the IC50 [1] was 2.6 nM and the Solubility [2] was “soluble in dimethylsulfoxide, pyridine, methanol and acetone, and slightly soluble in water”.
For `CCC(O)C(C)C1OC1CC(C)/C=C/C=C(\C)C1OC(=O)CC(O)/C=C/C2(CO2)C(OC(C)=O)/C=C/C1C` (stereo not shown) [11107AN], the pIC50 [1] was 7.00 to 9.00 and the Solubility [2] was “soluble in dimethylsulfoxide, pyridine, methanol and acetone, and slightly soluble in water”.
In the case of `CCC(O)C(C)C1OC1CC(C)/C=C/C=C(\C)C1OC(=O)CC(O)CCC2(CO2)C(O)/C=C/C1C` (stereo not shown) [11107AO], the Solubility [2] was “soluble in dimethylsulfoxide, pyridine, methanol and acetone, and slightly soluble in water”.
In the case of `CCC(O)C(C)C1OC1CC(C)/C=C/C=C(\C)C1OC(=O)CC(O)/C=C/C(C)(OC(C)=O)C(OC(C)=O)/C=C/C1C` (stereo not shown) [11107AP], the pIC50 [1] was 7.00 to 9.00 and the Solubility [2] was “soluble in dimethylsulfoxide, pyridine, methanol and acetone, and slightly soluble in water”.
For `CCC(O)C(C)C1OC1CC(C)/C=C/C=C(\C)C1OC(=O)CC(O)CCC(C)(OC(C)=O)C(OC(C)=O)/C=C/C1C` (stereo not shown) [11107AQ], the pIC50 [1] was 7.00 to 9.00 and the Solubility [2] was “soluble in dimethylsulfoxide, pyridine, methanol and acetone, and slightly soluble in water”.
In the case of `CC(=O)OC1/C=C/C(C)C(/C(C)=C/C=C/C(C)O)OC(=O)CC(O)CCC1C` (stereo not shown) [11107AR], the Solubility [2] was “soluble in dimethylsulfoxide, pyridine, methanol and acetone, and slightly soluble in water”.
With `CC(=O)OC1/C=C/C(C)C(/C(C)=C/C=C/C(C)CC(O)C2OC(C)C(O)C2C)OC(=O)CC(O)CCC1(C)O` (stereo not shown) [11107AS] the Solubility [2] was “soluble in dimethylsulfoxide, pyridine, methanol and acetone, and slightly soluble in water”.
For `CCC1OC(CC(C)/C=C/C=C(\C)C2OC(=O)CC(O)CCC(C)(O)C(OC(C)=O)/C=C/C2C)C(O)C1(C)O` (stereo not shown) [11107AU], the Solubility [2] was “soluble in dimethylsulfoxide, pyridine, methanol and acetone, and slightly soluble in water”.
For `CCC(=O)C(C)C1OC1CC(C)(O)/C=C/C=C(\C)C1OC(=O)CC(O)CCC(C)(O)C(OC(C)=O)/C=C/C1C` (stereo not shown) [11107AV], the Solubility [2] was “soluble in dimethylsulfoxide, pyridine, methanol and acetone, and slightly soluble in water”.
In the case of `CC(=O)OC1/C=C/C(C)C(/C(C)=C/C=C/C(C)CC2OC2C(C)C(O)C(C)O)OC(=O)CC(O)CCC1(C)O` (stereo not shown) [11107AW], the pIC50 [1] was 7.00 to 9.00 and the Solubility [2] was “soluble in dimethylsulfoxide, pyridine, methanol and acetone, and slightly soluble in water”.
In the case of `CCC(O)C(C)C1OC1C(O)C(C)/C=C/C=C(\C)C1OC(=O)CC(O)/C=C/C(C)(O)C(OC(C)=O)/C=C/C1C` (stereo not shown) [11107AX], the pIC50 [1] was 7.00 to 9.00 and the Solubility [2] was “soluble in dimethylsulfoxide, pyridine, methanol and acetone, and slightly soluble in water”.
In the case of `CCC1OC1C(O)C(C)/C=C/C=C(\C)C1OC(=O)CC(O)CCC(C)(O)C(OC(C)=O)/C=C/C1C` (stereo not shown) [11107AY], the pIC50 [1] was 7.00 to 9.00 and the Solubility [2] was “soluble in dimethylsulfoxide, pyridine, methanol and acetone, and slightly soluble in water”.
In the case of `CC(=O)OC1/C=C/C(C)C(/C(C)=C/C=C/C(C)CC2OC2C(C)C(O)C(C)O)OC(=O)CC(O)CC(O)C1(C)O` (stereo not shown) [11107AZ], the pIC50 [1] was 7.00 to 9.00 and the Solubility [2] was “soluble in dimethylsulfoxide, pyridine, methanol and acetone, and slightly soluble in water”.
With `CCC(O)C(C)C1OC1CC(C)/C=C/C=C(\C)C1OC(=O)CC(O)CCC(C)(O)C(O)/C=C/C1C` (stereo not shown) [11107A] the Solubility [2] was “soluble in dimethylsulfoxide, pyridine, methanol and acetone, and slightly soluble in water”.
For `CCC(O)C(C)C(O)C(O)CC(C)/C=C/C=C(\C)C1OC(=O)CC(O)/C=C/C(C)(O)C(OC(C)=O)/C=C/C1C` (stereo not shown) [11107BA], the Solubility [2] was “soluble in dimethylsulfoxide, pyridine, methanol and acetone, and slightly soluble in water”.
For `CCC1OC1CC(C)(O)/C=C/C=C(\C)C1OC(=O)CC(O)CCC(C)(O)C(OC(C)=O)/C=C/C1C` (stereo not shown) [11107BB], the Solubility [2] was “soluble in dimethylsulfoxide, pyridine, methanol and acetone, and slightly soluble in water”.
For `CCC(O)C(C)(O)/C=C/CC(C)/C=C/C1OC(=O)CC(O)CCC(C)(O)C(OC(C)=O)/C=C/C1C` (stereo not shown) [11107BC], the Solubility [2] was “soluble in dimethylsulfoxide, pyridine, methanol and acetone, and slightly soluble in water”.
In the case of `CCC(O)C(C)C1OC1CC(C)/C=C/C=C/C1OC(=O)CC(O)CCC(C)(O)C(O)/C=C/C1C` (stereo not shown) [11107BD], the Solubility [2] was “soluble in dimethylsulfoxide, pyridine, methanol and acetone, and slightly soluble in water”.
With `CC(=O)OC1/C=C/C(C)C(/C=C/C(C)C/C=C/C(C)O)OC(=O)CC(O)CCC1(C)O` (stereo not shown) [11107BE] the Solubility [2] was “soluble in dimethylsulfoxide, pyridine, methanol and acetone, and slightly soluble in water”.
In the case of `CCC(O)C(C)C1OC1C(O)C(C)/C=C/C=C(\C)C1OC(=O)CC(O)CCC(C)(O)C(OC(C)=O)/C=C/C1C` (stereo not shown) [11107BF], the Solubility [2] was “soluble in dimethylsulfoxide, pyridine, methanol and acetone, and slightly soluble in water”.
With `CCC1OC1(C)C(O)C(C)/C=C/C=C(\C)C1OC(=O)CC(O)CCC(C)(O)C(OC(C)=O)/C=C/C1C` (stereo not shown) [11107BG] the pIC50 [1] was 7.00 to 9.00 and the Solubility [2] was “soluble in dimethylsulfoxide, pyridine, methanol and acetone, and slightly soluble in water”.
For `CCC(O)C(C)C1OC1CC(C)/C=C/C=C(\C)C1OC(=O)CC(O)CC(=O)C(C)(O)C(OC(C)=O)/C=C/C1C` (stereo not shown) [11107BH], the pIC50 [1] was 7.00 to 9.00, the IC50 [1] was 2.6 nM and the Solubility [2] was “soluble in dimethylsulfoxide, pyridine, methanol and acetone, and slightly soluble in water”.
In the case of `CCC(O)C(C)/C=C/CC(C)/C=C/C=C(\C)C1OC(=O)CC(O)CCC(C)(O)C(OC(C)=O)/C=C/C1C` (stereo not shown) [11107BI], the pIC50 [1] was 7.00 to 9.00 and the Solubility [2] was “soluble in dimethylsulfoxide, pyridine, methanol and acetone, and slightly soluble in water”.
In the case of `CCC(O)C(C)/C=C/C=C(\C)C1OC(=O)CC(O)CCC(C)C(OC(C)=O)/C=C/C1C` (stereo not shown) [11107BJ], the Solubility [2] was “soluble in dimethylsulfoxide, pyridine, methanol and acetone, and slightly soluble in water”.
For `CCC(O)C(C)(O)C1OC1CC(C)/C=C/C=C(\C)C1OC(=O)CC(O)CCC(C)(O)C(OC(C)=O)/C=C/C1C` (stereo not shown) [11107E], the pIC50 [1] was 7.00 to 9.00 and the Solubility [2] was “soluble in dimethylsulfoxide, pyridine, methanol and acetone, and slightly soluble in water”.
For `CCC(=O)OC1/C=C/C(C)C(/C(C)=C/C=C/C(C)CC2OC2C(C)C(O)CC)OC(=O)CC(O)CCC1(C)O` (stereo not shown) [11107I], the pIC50 [1] was 7.00 to 9.00 and the Solubility [2] was “soluble in dimethylsulfoxide, pyridine, methanol and acetone, and slightly soluble in water”.
For `CC(=O)OC1/C=C/C(C)C(/C(C)=C/C=C/C(C)CC2OC2C(C)C(C)O)OC(=O)CC(O)CCC1(C)O` (stereo not shown) [11107J], the pIC50 [1] was 7.00 to 9.00, the IC50 [1] was 5.9 nM and the Solubility [2] was “soluble in dimethylsulfoxide, pyridine, methanol and acetone, and slightly soluble in water”.
For `CCC(O)C(C)C1OC1CC(C)/C=C/C=C(\C)C1OC(=O)CC(O)CC(O)C(C)(O)C(OC(C)=O)/C=C/C1C` (stereo not shown) [11107K], the pIC50 [1] was 7.00 to 9.00, the IC50 [1] was 2.7 nM and the Solubility [2] was “soluble in dimethylsulfoxide, pyridine, methanol and acetone, and slightly soluble in water”.
In the case of `CCC(O)C(C)C1OC1CC(C)/C=C/C=C(\C)C1OC(=O)CC(O)CC(OC(C)=O)C(C)(O)C(OC(C)=O)/C=C/C1C` (stereo not shown) [11107L], the pIC50 [1] was 7.00 to 9.00 and the Solubility [2] was “soluble in dimethylsulfoxide, pyridine, methanol and acetone, and slightly soluble in water”.
For `CCC(O)C(C)C1OC1CC(C)/C=C/C=C(\C)C1OC(=O)CC(OC(C)=O)CCC(C)(O)C(OC(C)=O)/C=C/C1C` (stereo not shown) [11107M], the pIC50 [1] was 7.00 to 9.00 and the Solubility [2] was “soluble in dimethylsulfoxide, pyridine, methanol and acetone, and slightly soluble in water”.
With `CCC(O)C(C)C(O)C(O)CC(C)/C=C/C=C(\C)C1OC(=O)CC(O)CCC(C)(O)C(OC(C)=O)/C=C/C1C` (stereo not shown) [11107O] the Solubility [2] was “soluble in dimethylsulfoxide, pyridine, methanol and acetone, and slightly soluble in water”.
For `CCC(O)C(C)C1OC1CC(C)/C=C/C=C(\C)C1OC(=O)CC(O)/C=C/C(C)(O)C(O)/C=C/C1C` (stereo not shown) [11107S], the Solubility [2] was “soluble in dimethylsulfoxide, pyridine, methanol and acetone, and slightly soluble in water”.
With `CCC(O)C(C)C1OC1CC(C)/C=C/C=C(\C)C1OC(=O)CC(O)CCC(C)(O)CCC(=O)C1C` (stereo not shown) [11107V] the Solubility [2] was “soluble in dimethylsulfoxide, pyridine, methanol and acetone, and slightly soluble in water”.
With `CCC(O)C(C)C1OC1CC(C)/C=C/C=C(\C)C1OC(=O)C(C)C(O)CCC(C)(O)C(OC(C)=O)/C=C/C1C` (stereo not shown) [11107X] the Solubility [2] was “soluble in dimethylsulfoxide, pyridine, methanol and acetone, and slightly soluble in water”.
